Reference: patent US11033516B1, “Combination therapies with disulfiram” (Spring Discovery, Inc., priority 2020, dated 2021)

Columns and labels:
[1] = system: T-type calcium channels (T-channels); details: native T-currents; cited from earlier work
[2] = biological target: tyrosinase; details: read-out: IC50, reversible inhibitor of tyrosinase; cited from earlier work
[3] = system: Spodoptera litura larvae; details: cited from earlier work
[4] = system: most gram-positive and some gram-negative bacteria; details: cited from earlier work
[5] = system: SAMP8 mice; details: intragastric, 4-month-old SAMP8 mice, 2 months; cited from earlier work
[6] = biological target: CYP2C19 (Homo sapiens, UniProt P33261); details: cited from earlier work
[7] = biological target: CYP2B6 (Homo sapiens, UniProt P20813); details: cited from earlier work
[8] = biological target: CYP2C8 (Homo sapiens, UniProt P10632); details: cited from earlier work
[9] = biological target: CYP2C9 (Homo sapiens, UniProt P11712); details: cited from earlier work
[10] = biological target: CYP3A4 (Homo sapiens, UniProt P08684); details: cited from earlier work
[11] = biological target: human SIRT2 (Homo sapiens, UniProt Q8IXJ6); details: read-out: IC50, inhibition of human SIRT2; cited from earlier work
[12] = biological target: human SIRT1 (Homo sapiens, UniProt Q96EB6); details: read-out: IC50, inhibition of human SIRT1; cited from earlier work
[13] = biological target: fibroblast growth factor receptor 1 (FGFR1) (Homo sapiens, UniProt P11362); details: cited from earlier work
[14] = biological target: FGFR2 (Homo sapiens, UniProt P21802); details: cited from earlier work
[15] = system: SV-129 mice; details: 450 mg/kg during a 15-minute period, after chronic simvastatin 2 mg/kg s.c. daily for 14 days; cited from earlier work
[16] = biological target: N-methyl-D-aspartate receptors (NMDARs) (Homo sapiens, UniProt Q05586); details: read-out: KB, competitive antagonist for the glycine-binding site of NMDARs; cited from earlier work
[17] = 510 mg/day, patients, cited from earlier work
[18] = system: S. aureus; details: cited from earlier work
[19] = system: most molds; details: for most molds; cited from earlier work
[20] = static toxicity tests; cited from earlier work
[21] = system: vesicular stomatitis virus (VSV); details: cited from earlier work
[22] = system: poliovirus; details: cited from earlier work
[23] = system: HSV-1; details: cited from earlier work
[24] = biological target: T1, Yeast-made GLUT1 (Rattus norvegicus, UniProt P11167); details: cited from earlier work
T1 construct: host or cells: yeast

[25] = biological target: T2, Human erythrocyte GLUT1 (Homo sapiens, UniProt P11166); details: cited from earlier work
T2 construct: Human erythrocyte GLUT1; from tissue; host or cells: human erythrocytes

[26] = system: carrageenan-induced edema and nociception; details: 25, 50 or 100 mg/kg, i.p., immediately and 2 h after injection of carrageenan; cited from earlier work
[27] = system: fever induced by lipopolysaccharide (LPS); details: 50 or 100 mg/kg, i.p., 0 and 2 h, rats; cited from earlier work
[28] = biological target: COX-2 (Homo sapiens, UniProt P35354); details: read-out: IC50, inhibition of COX-2 activity; cited from earlier work
[29] = biological target: TRPM8 (Homo sapiens, UniProt Q7Z2W7); details: read-out: EC50, agonist of TRPM8; cited from earlier work
[30] = biological target: hERG channel (Homo sapiens, UniProt Q12809); details: read-out: IC50, hERG channel blocker; cited from earlier work
[31] = system: fibroblasts, peripheral blood mononuclear cells (PBMCs), myoblasts; experiment: Reversal of aging (reducing predicted age) in cultured young/old cells contacted with disulfiram plus potentiating ingredients; details: concentrations 0.000005 to 80 μM; potentiating ingredient up to 25 μM
[32] = system: THP1 HMGB1 Lucia cells; experiment: Pyroptosis inhibition luciferase assay (LPS + nigericin, HMGB1 luciferase reporter, QUANTI-Luc); details: 1 μg/ml LPS 3 h, then 10 μM nigericin 3 h
[33] = system: periodontopathic and cariogenic bacteria; details: cited from earlier work
[34] = biological target: β-glucosidase; details: cited from earlier work

T2 sequence (P11166 whole entry): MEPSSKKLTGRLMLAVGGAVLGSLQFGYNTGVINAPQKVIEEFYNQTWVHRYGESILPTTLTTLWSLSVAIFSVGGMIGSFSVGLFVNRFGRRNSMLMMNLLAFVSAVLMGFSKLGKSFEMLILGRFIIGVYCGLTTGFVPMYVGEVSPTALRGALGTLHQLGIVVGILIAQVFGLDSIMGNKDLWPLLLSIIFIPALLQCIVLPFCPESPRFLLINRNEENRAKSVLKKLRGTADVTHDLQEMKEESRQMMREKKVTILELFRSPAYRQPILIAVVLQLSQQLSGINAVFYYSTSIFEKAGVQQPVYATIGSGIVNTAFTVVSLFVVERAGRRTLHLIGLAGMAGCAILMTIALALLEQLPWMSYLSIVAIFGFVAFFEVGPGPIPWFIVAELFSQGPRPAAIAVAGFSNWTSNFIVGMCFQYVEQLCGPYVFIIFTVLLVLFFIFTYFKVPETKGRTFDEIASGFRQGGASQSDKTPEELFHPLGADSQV
Sequence of CYP3A4 (P08684 whole entry): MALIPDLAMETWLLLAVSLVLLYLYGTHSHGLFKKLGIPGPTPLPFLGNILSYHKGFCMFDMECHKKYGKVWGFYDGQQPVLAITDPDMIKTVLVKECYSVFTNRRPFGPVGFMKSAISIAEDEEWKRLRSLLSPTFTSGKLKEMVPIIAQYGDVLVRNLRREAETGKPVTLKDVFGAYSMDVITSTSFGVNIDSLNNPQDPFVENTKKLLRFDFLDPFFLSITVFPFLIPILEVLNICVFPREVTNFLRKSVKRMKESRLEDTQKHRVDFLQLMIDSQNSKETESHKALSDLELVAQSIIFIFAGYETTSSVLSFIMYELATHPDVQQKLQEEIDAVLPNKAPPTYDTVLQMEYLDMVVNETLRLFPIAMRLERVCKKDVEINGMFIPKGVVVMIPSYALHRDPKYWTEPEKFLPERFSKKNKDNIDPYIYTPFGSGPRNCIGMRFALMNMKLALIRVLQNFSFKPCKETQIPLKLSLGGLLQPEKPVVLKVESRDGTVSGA
Sequence of human SIRT2 (Q8IXJ6 whole entry): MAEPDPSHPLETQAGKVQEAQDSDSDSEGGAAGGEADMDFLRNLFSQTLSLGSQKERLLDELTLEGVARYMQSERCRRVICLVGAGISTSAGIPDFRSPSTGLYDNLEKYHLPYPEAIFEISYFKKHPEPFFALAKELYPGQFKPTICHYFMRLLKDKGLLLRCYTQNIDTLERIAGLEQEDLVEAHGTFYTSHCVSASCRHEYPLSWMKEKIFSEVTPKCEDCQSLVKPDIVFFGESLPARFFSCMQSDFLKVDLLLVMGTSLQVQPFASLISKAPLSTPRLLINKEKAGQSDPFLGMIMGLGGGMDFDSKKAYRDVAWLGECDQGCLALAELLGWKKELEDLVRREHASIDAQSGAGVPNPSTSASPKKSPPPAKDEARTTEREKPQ
Sequence of FGFR2 (P21802 22-821, species assumed): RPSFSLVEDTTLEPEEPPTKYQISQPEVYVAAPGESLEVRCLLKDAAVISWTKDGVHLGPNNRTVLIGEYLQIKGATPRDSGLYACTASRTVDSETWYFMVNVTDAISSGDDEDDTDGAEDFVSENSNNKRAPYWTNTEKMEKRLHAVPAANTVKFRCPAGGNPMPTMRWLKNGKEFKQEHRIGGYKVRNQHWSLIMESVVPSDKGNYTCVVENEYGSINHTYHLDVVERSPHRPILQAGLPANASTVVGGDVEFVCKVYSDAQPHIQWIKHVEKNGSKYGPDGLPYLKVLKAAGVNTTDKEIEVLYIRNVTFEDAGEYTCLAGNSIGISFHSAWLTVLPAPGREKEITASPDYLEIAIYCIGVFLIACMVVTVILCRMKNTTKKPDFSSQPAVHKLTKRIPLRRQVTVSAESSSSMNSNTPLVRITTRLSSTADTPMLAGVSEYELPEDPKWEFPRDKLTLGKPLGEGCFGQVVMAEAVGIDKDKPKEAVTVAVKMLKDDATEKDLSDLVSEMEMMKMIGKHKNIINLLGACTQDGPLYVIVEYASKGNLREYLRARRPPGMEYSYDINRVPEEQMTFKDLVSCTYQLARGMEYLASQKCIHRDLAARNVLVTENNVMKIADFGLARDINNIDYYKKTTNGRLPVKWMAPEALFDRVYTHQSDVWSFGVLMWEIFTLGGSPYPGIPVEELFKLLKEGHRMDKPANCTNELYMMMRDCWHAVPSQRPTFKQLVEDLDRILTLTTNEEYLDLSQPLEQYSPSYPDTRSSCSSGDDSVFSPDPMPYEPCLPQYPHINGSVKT
Sequence of CYP2B6 (P20813 whole entry): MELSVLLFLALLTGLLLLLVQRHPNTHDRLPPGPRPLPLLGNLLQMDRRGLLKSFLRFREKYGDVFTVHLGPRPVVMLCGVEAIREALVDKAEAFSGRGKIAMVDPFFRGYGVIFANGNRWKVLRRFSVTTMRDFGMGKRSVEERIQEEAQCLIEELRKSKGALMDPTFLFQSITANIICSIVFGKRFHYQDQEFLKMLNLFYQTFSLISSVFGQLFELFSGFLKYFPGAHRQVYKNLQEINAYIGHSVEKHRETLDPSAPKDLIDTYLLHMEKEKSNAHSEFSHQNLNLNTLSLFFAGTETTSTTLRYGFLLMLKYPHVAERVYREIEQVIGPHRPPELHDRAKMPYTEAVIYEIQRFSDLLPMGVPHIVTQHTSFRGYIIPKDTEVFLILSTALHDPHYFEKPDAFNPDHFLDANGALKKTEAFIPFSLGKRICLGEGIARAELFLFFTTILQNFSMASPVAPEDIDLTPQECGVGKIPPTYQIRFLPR
Sequence of human SIRT1 (Q96EB6 whole entry): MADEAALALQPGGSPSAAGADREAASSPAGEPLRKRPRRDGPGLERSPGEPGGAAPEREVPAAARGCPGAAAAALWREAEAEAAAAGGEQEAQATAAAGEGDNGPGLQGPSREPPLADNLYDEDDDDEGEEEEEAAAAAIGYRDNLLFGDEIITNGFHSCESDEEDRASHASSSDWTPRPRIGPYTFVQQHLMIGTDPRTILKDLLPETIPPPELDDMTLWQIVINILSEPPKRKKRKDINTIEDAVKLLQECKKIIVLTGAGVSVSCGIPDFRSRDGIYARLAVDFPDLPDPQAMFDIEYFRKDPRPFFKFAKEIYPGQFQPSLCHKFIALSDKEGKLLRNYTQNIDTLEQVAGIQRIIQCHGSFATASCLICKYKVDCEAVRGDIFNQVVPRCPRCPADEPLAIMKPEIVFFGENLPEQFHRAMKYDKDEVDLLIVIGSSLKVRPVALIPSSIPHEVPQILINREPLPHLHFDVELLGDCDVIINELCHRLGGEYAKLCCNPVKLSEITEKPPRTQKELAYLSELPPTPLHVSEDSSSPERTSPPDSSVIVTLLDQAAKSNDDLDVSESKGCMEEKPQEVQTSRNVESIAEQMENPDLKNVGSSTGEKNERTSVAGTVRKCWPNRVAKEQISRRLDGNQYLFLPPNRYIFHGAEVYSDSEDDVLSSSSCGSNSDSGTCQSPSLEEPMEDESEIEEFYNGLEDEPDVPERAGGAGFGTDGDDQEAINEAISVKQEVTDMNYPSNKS
Sequence of CYP2C8 (P10632 whole entry): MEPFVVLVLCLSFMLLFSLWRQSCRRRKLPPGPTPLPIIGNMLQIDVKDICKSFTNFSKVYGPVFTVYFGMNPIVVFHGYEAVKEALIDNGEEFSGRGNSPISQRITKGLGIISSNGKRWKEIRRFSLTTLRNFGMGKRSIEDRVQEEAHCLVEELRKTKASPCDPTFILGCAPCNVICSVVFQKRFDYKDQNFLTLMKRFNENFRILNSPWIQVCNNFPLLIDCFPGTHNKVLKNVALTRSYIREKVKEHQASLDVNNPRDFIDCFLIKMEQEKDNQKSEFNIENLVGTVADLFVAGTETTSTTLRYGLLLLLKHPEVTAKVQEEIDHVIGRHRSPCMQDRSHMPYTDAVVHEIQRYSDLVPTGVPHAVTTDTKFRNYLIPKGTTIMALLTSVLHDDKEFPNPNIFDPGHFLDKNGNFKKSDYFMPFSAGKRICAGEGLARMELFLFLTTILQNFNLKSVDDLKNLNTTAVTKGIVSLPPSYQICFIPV
Sequence of CYP2C9 (P11712 whole entry): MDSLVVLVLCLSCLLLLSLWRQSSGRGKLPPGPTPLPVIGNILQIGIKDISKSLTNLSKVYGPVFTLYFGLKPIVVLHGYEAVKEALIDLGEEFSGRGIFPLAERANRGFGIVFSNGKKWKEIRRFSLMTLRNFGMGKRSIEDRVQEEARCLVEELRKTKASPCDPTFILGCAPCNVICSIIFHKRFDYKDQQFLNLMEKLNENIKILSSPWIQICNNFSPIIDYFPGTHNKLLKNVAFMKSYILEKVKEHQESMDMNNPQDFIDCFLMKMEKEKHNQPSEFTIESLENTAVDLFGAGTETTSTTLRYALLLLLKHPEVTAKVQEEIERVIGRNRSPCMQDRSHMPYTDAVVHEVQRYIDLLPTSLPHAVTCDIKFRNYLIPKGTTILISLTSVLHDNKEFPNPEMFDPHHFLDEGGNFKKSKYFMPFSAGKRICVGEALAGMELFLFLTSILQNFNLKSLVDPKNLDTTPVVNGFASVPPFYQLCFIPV
Sequence of CYP2C19 (P33261 whole entry): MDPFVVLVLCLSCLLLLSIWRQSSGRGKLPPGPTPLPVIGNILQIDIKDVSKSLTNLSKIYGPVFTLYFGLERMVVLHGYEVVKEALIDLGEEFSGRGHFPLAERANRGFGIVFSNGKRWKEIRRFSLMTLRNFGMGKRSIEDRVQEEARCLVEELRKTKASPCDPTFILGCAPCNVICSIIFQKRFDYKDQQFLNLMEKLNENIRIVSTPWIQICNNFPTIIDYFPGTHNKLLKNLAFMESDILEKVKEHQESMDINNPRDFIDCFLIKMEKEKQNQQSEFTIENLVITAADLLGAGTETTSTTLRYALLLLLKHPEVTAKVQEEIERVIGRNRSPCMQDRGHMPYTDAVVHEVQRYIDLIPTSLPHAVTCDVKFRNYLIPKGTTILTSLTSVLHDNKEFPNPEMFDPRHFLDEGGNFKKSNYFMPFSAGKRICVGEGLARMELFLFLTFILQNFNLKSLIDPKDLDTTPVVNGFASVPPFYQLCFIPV

Compound: CCCCCCCCO [1-Octanol]
- IC50 [1]: 4 µM

Compound: O=C(O)CCC(=O)C(=O)O [2-Ketoglutaric acid]
- IC50 [2]: 15000 µM

Compound: CCCC=C1OC(=O)c2ccccc21 [3-Butylidenephthalide]
- LC50 larvicidal activity [3]: activity (LC50 of 1.56 mg/g for Spodoptera

Compound: O=C(O)c1ccc(O)cc1 [4-Hydroxybenzoic acid]
- IC50, inhibition of most gram-positive and some gram-negative bacteria [4]: of 160 μg/mL.

Compound: CCCCC1OC(=O)c2ccccc21 (stereo not shown) [Butylphthalide]
- loss of choline acetyltransferase (ChAT)-positive neurons in the medial septal nucleus and vertical limb of the diagonal band [5]: diagonal band in SAMP8 mice was slowed down,
- spatial learning and memory ability [5]: 2 months significantly improved spatial learning a

Compound: C[C@@H]1CC[C@H]2C(C)(C)[C@H]3C[C@@]12CC[C@@]3(C)O [Cedrol]
- inhibitory effect on CYP2C19 [6]: has weak inhibitory effect on CYP2C8,
- Ki [7]: 0.9 µM
- inhibitory effect on CYP2C8 [8]: has weak inhibitory effect on CYP2C8,
- inhibitory effect on CYP2C9 [9]: has weak inhibitory effect on CYP2C8,
- Ki [10]: 3.4 µM

Compound: O=C1CCc2ccccc2O1 [Dihydrocoumarin]
- IC50 [11]: 295 µM
- IC50 [12]: 208 µM

Compound: COc1cc(/C=C/C(=O)O)ccc1O [Ferulic acid (sodium)]
- IC50 [13]: 3.78 µM
- IC50 [14]: 12.5 µM

Compound: N=C(N)NCCC[C@H](N)C(=O)O [L-Arginine]
- hyperemia amplified and sustained [15]: hyperemia (38%) and increases absolute brain

Compound: N[C@@H](Cc1ccccc1)C(=O)O [L-Phenylalanine]
- Kb [16]: 573 µM

Compound: C[N+](C)(C)C[C@H](O)CC(=O)[O-] [L-carnitine]
- total time for dozing off during the daytime, calculated from the sleep logs ([17]; compared with placebo-treated periods): improved the total time for dozing off during the
- serum acylcarnitine levels [17]: (Levocarnitine) efficiently increased serum acyl-
- serum triglycerides concentration [17]: carnitine levels, and reduced serum triglycerides

Compound: CCCCCCCCCCCC(=O)O [Lauric acid]
- EC50 for S. aureus [18]: 6 µg/mL

Compound: C[C@@H]1C/C=C/C=C/C=C/C=C/[C@H](O[C@@H]2O[C@H](C)[C@@H](O)[C@H](N)[C@@H]2O)C[C@@H]2O[C@](O)(C[C@@H](O)C[C@H]3O[C@@H]3/C=C/C(=O)O1)C[C@H](O)[C@H]2C(=O)O [Natamycin]
- MIC (minimum inhibitory concentration) [19]: concentration) of less than 10 ppm for most molds.

Compound: CCCCCCCCC(=O)NCc1ccc(O)c(OC)c1 [Nonivamide]
- 4d-EC50 [20]: exhibits 4d-EC50 value of 5.1 mg/L in static

Compound: CCCCCCCCOC(=O)c1cc(O)c(O)c(O)c1 [Octyl gallate]
- antiviral effect against vesicular stomatitis virus (VSV) [21]: Octyl gallate shows a marked antiviral effect
- antiviral effect against poliovirus [22]: Octyl gallate shows a marked antiviral effect
- antiviral effect against HSV-1 [23]: Octyl gallate shows a marked antiviral effect

Compound: O=C(CCc1ccc(O)cc1)c1c(O)cc(O)cc1O [Phloretin]
- IC50 [24]: 49 µM
- IC50 [25]: 61 µM

Compound: Cc1cc2nc3c(=O)[nH]c(=O)nc-3n(C[C@H](O)[C@H](O)[C@H](O)CO)c2cc1C [Riboflavin]
- antinociceptive effect [26]: antinociceptive effects. The antinociceptive effect
- fever induced by lipopolysaccharide (LPS) [27]: 2 h) also inhibited the fever induced by lipopoly-

Compound: COc1cc(C=O)cc(OC)c1O [Syringaldehyde]
- IC50 [28]: 19.2 µM

Compound: CCNC(=O)C1CC(C)CCC1C(C)C (stereo not shown) [TRPM8 antagonist WS-3]
- EC50 [29]: 3.7 µM

Compound: O=C(OC[C@H]1O[C@@H](OC(=O)c2cc(O)c(O)c(OC(=O)c3cc(O)c(O)c(O)c3)c2)[C@H](OC(=O)c2cc(O)c(O)c(OC(=O)c3cc(O)c(O)c(O)c3)c2)[C@@H](OC(=O)c2cc(O)c(O)c(OC(=O)c3cc(O)c(O)c(O)c3)c2)[C@@H]1OC(=O)c1cc(O)c(O)c(OC(=O)c2cc(O)c(O)c(O)c2)c1)c1cc(O)c(O)c(OC(=O)c2cc(O)c(O)c(O)c2)c1 [Tannic acid]
- IC50 [30]: 3.4 µM

Compound: O=C/C=C/c1ccccc1 [cinnamaldehyde, (2E)-3-Phenyl-2-propenal]
- ability to potentiate disulfiram in reversing aging of cells [31]: identified as a potentiating ingredient
- inhibition of pyroptosis (HMGB1 luciferase reporter in supernatant) [32]: no effect

Compound: CC1=CCC(C(C)(C)O)CC1 (stereo not drawn) [α-Terpineol]
- antimicrobial activity against periodontopathic and cariogenic bacteria [33]: Labill, exhibits strong antimicrobial activity

Compound: Rebaudioside A
- IC 50 (Target: β-glucosidase) [34]: IC 50: 35.01 ug/mL
